The source of these data is patent US7772180B2, “Hepatitis C virus inhibitors” (Bristol-Myers Squibb Company, priority 2006, dated 2010).

pEC50: −log10 of the molar value. Read-outs that look alike come from different tables or passages of the source.

The test system of the experiment is HCV replicon (strain 1b) in HUH-7 cells. Kind of experiment: HCV replicon FRET assay. Type of experiment: cell-based, Hepatitis C virus. The following applies: Hepatitis C virus. In general terms: In antiviral work, replicon cells carry a viral genome segment that copies itself.

A word on the pEC50: it is −log10 of the EC50, conventionally taken in molar units. Take `C=C[C@@H]1C[C@]1(NC(=O)[C@@H]1C[C@@H](Oc2nc(N(C)C)cc3cc(OC)ccc23)CN1C(=O)C(Nc1cc(C)cc(C)n1)C(C)(C)C)C(=O)NS(=O)(=O)C1CC1` (single isomer, unassigned) [Compound 18]: the pEC50 (Huh-7, read-out: EC50 in the replicon FRET assay, replicon FRET assay) is 8.05 and the pEC50 (Huh-7, read-out: HCV Pro Replicon (EC50), HCV replicon cell assay, activity range class) is 7.00 to 8.52.
